Results from patent US6716442B2, “Process and means for the eradication of fleas in the habitats of small mammals” (Merial, priority 1997, dated 2004).
Like-named read-outs stand apart in the source and are kept apart here.

Key:
fleas [1] = assay: Similar flea eradication test on cats; format: in vivo; conditions: same results as dogs
[2] = system: fleas (Ctenocephalides felis); assay: Eradication of fleas in enclosures of infested dogs treated monthly with a spot-on solution; format: in vivo; conditions: group C, 10% fipronil cutaneous point solution on days 0, 28, 56, 84, weekly egg counts, body and comb counts over weeks 1-12, regularly reinfested
From the text: The test used dogs in good health.
The dogs were divided by groups of three dogs into enclosures of area approximately 4.80 m long (16 feet) and 1.5 m wide (5 feet) each containing a shelter and soil especially favourable to the development of the immature stages of the fleas (Ctenocephalides felis).
A total of 18 dogs, that is to say six enclosures, was allocated to the control group A.
A group C of six dogs (2 enclosures) preinfested in this way received the treatment according to the invention by application of a cutaneous point solution having a concentration of 10% of fipronil.
The doses of concentrated composition for local cutaneous application of fipronil were as follows:
The animals of group C were treated on day 0 and then every 28 days, that is to say the days 28, 56 and 84.

fleas [3] = conditions: dogs; concentrated solution for point application (spot on); cited from earlier work
fleas [4] = conditions: cats; concentrated solution for point application (spot on); cited from earlier work

## N#Cc1nn(-c2c(Cl)cc(C(F)(F)F)cc2Cl)c(N)c1[S+]([O-])C(F)(F)F (stereo not shown) [fipronil, 1-[2,6-Cl2-4-CF3-phenyl]-3-CN-4-[SO—CF3]-5-NH2-pyrazole]
Fleas [1]
  reinfestation: total absence of reinfestation
[2]
  rate of control of the infestation: 100%
Fleas [3]
  period of anti-flea efficacy: 2 to 3 months
Fleas [4]
  period of anti-flea efficacy: six
